# Data as given in patent US20150141435A1, “2-PYRIDONE ANTIMICROBIAL COMPOSITIONS” (Emergent BioSolutions, priority 2010, published 2015).
# Structures can show the parent of a compound that is named as a salt. Where two headings read alike, the source gives them in different places.
# Tests used:
# Assay type in all cases: cell-based
# [1] = tested on: Brucella abortus ATCC 23448; assay: microbe, parasite or virus in culture; conditions: ATCC23448
# [2] = tested on: K. pneumoniae ATCC 33495; assay: MIC, CLSI broth microdilution (Table 2); conditions: Klebsiella pneumoniae
# [3] = tested on: Bacillus anthracis Ames strain; assay: microbe, parasite or virus in culture
# [4] = tested on: P. aeruginosa ATCC 27853; assay: MIC, CLSI broth microdilution (Table 2); conditions: Pseudomonas aeruginosa
# [5] = tested on: S. aureus ATCC 43300 (MRSA, FQ-S); assay: MIC, CLSI broth microdilution (Table 1); conditions: Staphylococcus aureus, read-out: MIC S. aureus ATCC 43300 (MRSA, FQ-S)
# [6] = tested on: S. aureus ATCC 25923; assay: MIC, CLSI broth microdilution (Table 1); conditions: Staphylococcus aureus
# [7] = tested on: S. pneumonia ATCC 49619; assay: MIC, CLSI broth microdilution (Table 1); conditions: Streptococcus pneumoniae
# [8] = tested on: Yersinia pestis C092; assay: microbe, parasite or virus in culture
# [9] = tested on: S. aureus BAA-1720 (MRSA, FQ-R); assay: MIC, CLSI broth microdilution (Table 1); conditions: Staphylococcus aureus, read-out: MIC S. aureus BAA-1720 (MRSA, FQ-R)
# [10] = tested on: E. faecalis ATCC 29212; assay: MIC, CLSI broth microdilution (Table 1); conditions: Enterococcus faecalis
# [11] = tested on: H. influenzae ATCC 49247; assay: MIC, CLSI broth microdilution (Table 2); conditions: Haemophilus influenzae
# [12] = tested on: Burkholderia mallei ATCC 23344; assay: microbe, parasite or virus in culture; conditions: ATCC23344
# [13] = tested on: S. maltophilia ATCC 17677; assay: MIC, CLSI broth microdilution (Table 2); conditions: Stenotrophomonas maltophilia
# [14] = tested on: A. baumannii ATCC 19606; assay: MIC, CLSI broth microdilution (Table 2); conditions: Acinetobacter baumannii
# [15] = tested on: Burkholderia pseudomallei ATCC 23343; assay: microbe, parasite or virus in culture; conditions: ATCC23343
# [16] = tested on: Francisella tularensis Schu S4; assay: microbe, parasite or virus in culture; conditions: SCHUS4
# [17] = tested on: E. coli ATCC 25922; assay: MIC, CLSI broth microdilution (Table 2); conditions: Escherichia coli
# [18] = tested on: E. faecium ATCC 19434; assay: MIC, CLSI broth microdilution (Table 1); conditions: Enterococcus faecium
# [19] = ATCC33495, Gram negative, MHB, 37° C., 16-20 hours, read-out: MIC K. pneumoniae ATCC 33495
# [20] = ATCC27853, Gram negative, MHB, 37° C., 16-20 hours, read-out: MIC P. aeruginosa ATCC 27853
# [21] = Gram positive, MHB, 37° C., 16-20 hours
# [22] = ATCC25923, Gram positive, MHB, 37° C., 16-20 hours, read-out: MIC S. aureus ATCC 25923
# [23] = ATCC49619, read-out: MIC S. pneumonia ATCC 49619
# [24] = ATCC29212, Gram positive, MHB, 37° C., 16-20 hours, read-out: MIC E. faecalis ATCC 29212
# [25] = ATCC49247, Gram negative, MHB, 37° C., 16-20 hours, read-out: MIC H. influenzae ATCC 49247
# [26] = ATCC17677, Gram negative, MHB, 37° C., 16-20 hours, read-out: MIC S. maltophilia ATCC 17677
# [27] = ATCC19606, read-out: MIC A. baumannii B. ATCC 19606
# [28] = ATCC25922, Gram negative, MHB, 37° C., 16-20 hours, read-out: MIC E. coli ATCC 25922
# [29] = ATCC19434, Gram positive, MHB, 37° C., 16-20 hours, read-out: MIC E. faecium ATCC 19434
# [30] = ATCC33495, read-out: MIC K. pneumoniae ATCC 33495
# [31] = ATCC27853, read-out: MIC P. aeruginosa ATCC 27853
# [32] = ATCC25923, read-out: MIC S. aureus ATCC 25923
# [33] = ATCC29212, read-out: MIC E. faecalis ATCC 29212
# [34] = ATCC49247, read-out: MIC H. influenzae ATCC 49247
# [35] = ATCC17677, read-out: MIC S. maltophilia ATCC 17677
# [36] = ATCC25922, read-out: MIC E. coli ATCC 25922
# [37] = ATCC19434, read-out: MIC E. faecium ATCC 19434
# [38] = ATCC49619, Gram positive, MHB, 37° C., 16-20 hours, read-out: MIC S. pneumonia ATCC 49619
# [39] = ATCC19606, Gram negative, MHB, 37° C., 16-20 hours, read-out: MIC A. baumannii B. ATCC 19606
SMILES,MIC [1],"MIC [2, 19]",MIC [3],"MIC [4, 20]","MIC [5, 21]","MIC [7, 23]",MIC [8],MIC [12],"MIC [14, 27]",MIC [15],MIC [16],"MIC [2, 30]",MIC [5],"MIC [6, 32]",MIC [9],"MIC [10, 33]","MIC [11, 34]","MIC [13, 35]","MIC [17, 36]","MIC [18, 37]",other results
"Cc1c(-c2ccc(CO)cc2)ccn2c(=O)c(C(=O)O)cc(C3CC3)c12 [Example 48 K salt, 1-cyclopropyl-8-(4-hydroxy-methyl-phenyl)-9-methyl-4-oxo-4H-quinolizine-3-carboxylic acid]",0.031 µg/mL,0.25 µg/mL,0.008 µg/mL,2 µg/mL,0.008 µg/mL,0.125 µg/mL,0.031 µg/mL,0.125 µg/mL,0.125 µg/mL,0.125 µg/mL,0.016 µg/mL,,,,,,,,,,"MIC [6, 22]: 0.008 to 0.016 µg/mL; MIC [9, 21]: 0.5 µg/mL; MIC [10, 24]: 0.032 to 0.064 µg/mL; MIC [11, 25]: ≤ 0.004 µg/mL; MIC [13, 26]: 0.25 µg/mL; MIC [17, 28]: 0.064 µg/mL; MIC [18, 29]: 1 µg/mL"
"Cc1c(-c2ccc(N)c(F)c2)ccn2c(=O)c(C(=O)O)cc(C3CC3)c12 [Example 2 K salt, 8-(4-amino-3-fluoro-phenyl)-1-cyclopropyl-9-methyl-4-oxo-4H-quinolizine-3-carboxylic acid]",0.016 to 0.031 µg/mL,,0.004 µg/mL,,,0.032 µg/mL,0.031 µg/mL,0.063 µg/mL,0.125 µg/mL,0.063 µg/mL,0.016 µg/mL,0.125 µg/mL,0.004 µg/mL,≤ 0.004 µg/mL,0.125 µg/mL,0.016 µg/mL,≤ 0.004 µg/mL,0.125 µg/mL,0.032 µg/mL,0.25 µg/mL,"MIC [4, 31]: 1 µg/mL"
"Cc1c(-c2cc(F)c(N)cc2F)ccn2c(=O)c(C(=O)O)cc(C3CC3)c12 [Example 28 K salt, 8-(4-amino-2,5-difluoro-phenyl)-1-cyclopropyl-9-methyl-4-oxo-4H-quinolizine-3-carboxylic acid]",0.031 to 0.063 µg/mL,,0.004 µg/mL,,,0.032 µg/mL,0.016 to 0.031 µg/mL,0.125 to 0.25 µg/mL,0.125 µg/mL,0.125 µg/mL,0.008 µg/mL,0.25 to 0.5 µg/mL,≤ 0.004 µg/mL,≤ 0.004 µg/mL,0.064 µg/mL,0.016 µg/mL,≤ 0.004 µg/mL,0.125 µg/mL,0.032 to 0.064 µg/mL,0.25 µg/mL,"MIC [4, 31]: 2 µg/mL"
"Cc1c(-c2ccc(N)c(F)c2)c(F)cn2c(=O)c(C(=O)O)cc(C3CC3)c12 [Example 1 K salt, 8-(4-amino-3-fluoro-phenyl)-1-cyclopropyl-7-fluoro-9-methyl-4-oxo-4H-quinolizine-3-carboxylic acid]",0.031 µg/mL,,0.004 µg/mL,,,0.016 µg/mL,0.031 µg/mL,0.25 to 0.5 µg/mL,0.064 µg/mL,0.5 µg/mL,0.016 µg/mL,0.125 µg/mL,≤ 0.004 µg/mL,≤ 0.004 µg/mL,0.125 µg/mL,0.008 µg/mL,≤ 0.004 µg/mL,0.125 µg/mL,0.032 to 0.064 µg/mL,0.25 µg/mL,
"Cc1c(-c2ccc(CN)cc2)ccn2c(=O)c(C(=O)O)cc(C3CC3)c12 [Example 31 K salt, 8-(4-(aminomethyl)-phenyl)-1-cyclopropyl-9-methyl-4-oxo-4H-quinolizine-3-carboxylic acid]",0.25 µg/mL,,0.016 to 0.031 µg/mL,,,0.125 µg/mL,0.25 µg/mL,0.5 to 1 µg/mL,0.25 µg/mL,1 µg/mL,0.125 to 0.5 µg/mL,0.125 to 0.25 µg/mL,0.032 µg/mL,0.064 µg/mL,1 µg/mL,0.25 µg/mL,0.016 µg/mL,0.125 µg/mL,0.032 µg/mL,2 µg/mL,"MIC [4, 31]: 1 µg/mL"
"Cc1c(-c2ccncc2)ccn2c(=O)c(C(=O)O)cc(C3CC3)c12 [Example 16 K salt, 1-cyclopropyl-9-methyl-4-oxo-8-(pyridin-4-yl)-4H-quinolizine-3-carboxylic acid]",0.063 µg/mL,,0.016 µg/mL,,,0.125 µg/mL,0.031 µg/mL,0.125 µg/mL,0.125 µg/mL,0.125 µg/mL,0.016 to 0.031 µg/mL,0.125 µg/mL,0.016 µg/mL,0.016 µg/mL,0.5 to 1 µg/mL,0.064 µg/mL,≤ 0.004 µg/mL,0.125 µg/mL,0.032 µg/mL,,
"Cc1c(-c2ccc(N(C)C)cc2)ccn2c(=O)c(C(=O)O)cc(C3CC3)c12 [Example 25 K salt, 1-cyclopropyl-8-(4-(dimethylamino)-phenyl)-9-methyl-4-oxo-4H-quinolizine-3-carboxylic acid]",,1 µg/mL,,> 8 µg/mL,0.064 µg/mL,,,,,,,,,,,,,,,,"MIC [6, 22]: 0.064 µg/mL; MIC [7, 38]: 0.25 µg/mL; MIC [9, 21]: 1 µg/mL; MIC [10, 24]: 0.125 µg/mL; MIC [11, 25]: 0.064 µg/mL; MIC [13, 26]: 1 µg/mL; MIC [14, 39]: 1 µg/mL; MIC [17, 28]: 0.5 µg/mL; MIC [18, 29]: 8 µg/mL"
"Cc1c(-c2ccc(C#N)c(F)c2)ccn2c(=O)c(C(=O)O)cc(C3CC3)c12 [Example 40 K salt, 8-(4-cyano-3-fluoro-phenyl)-1-cyclopropyl-9-methyl-4-oxo-4H-quinolizine-3-carboxylic acid]",,0.5 to 1 µg/mL,,> 8 µg/mL,0.016 µg/mL,,,,,,,,,,,,,,,,"MIC [6, 22]: 0.016 µg/mL; MIC [7, 38]: 0.125 µg/mL; MIC [9, 21]: 0.5 to 1 µg/mL; MIC [10, 24]: 0.064 µg/mL; MIC [11, 25]: 0.016 µg/mL; MIC [13, 26]: 0.25 µg/mL; MIC [14, 39]: 0.25 µg/mL; MIC [17, 28]: 0.125 to 0.25 µg/mL; MIC [18, 29]: 2 µg/mL"
